Source: paper PMC4841536, “Characterization of the Anti-HCV Activities of the New Cyclophilin Inhibitor STG-175” (PLoS ONE, 2016)
pEC50: −log10 of the molar value.

Experiments:
[1] = alamarBlue cytotoxicity (CC50), GT1a replicon cell line; settings: human
Experimental: The anti-HCV activity of STG-175 was conducted using a panel of luciferase reporter replicon cell lines including GT1a, GT1b, GT2a, GT3a and GT4a as we described previously. The GT1a subgenomic renilla luciferase reporter replicon H77 RLucP (7) was supplied by Dr. Delaney. The GT1b subgenomic firefly luciferase reporter replicon pFK-I389/NS3-3’ [29] was supplied by Dr. Bartenschlager. The GT1B subgenomic NS3, NS5A and NS5B mutants were created via homologous recombination using the In-Fusion HD Cloning kit (Clontech) as we described previously. The GT2a genomic luciferase reporter replicon Luc-Neo-JFH-1 was generated as previously. The plasmid pFK-Luc-JFH1 was supplied from Drs. […] The CellTiter-Fluor™ Cell Viability Assay is a non-lytic fluorescence assay, which measures the number of live cells. […] Luciferase activity was determined using the Luciferase Assay System (Promega) in a Berthold luminometer. […] Viable cells continuously convert resazurin to resorufin, increasing the overall fluorescence and color of the media surrounding cells.
Fig 2 Anti-HCV activities of STG-175 among GTs. […] Luciferase activity was determined using the Luciferase Assay System in a Berthold luminometer. […] Data are expressed as mean of relative light units and calculated EC50s are presented. […]

[2] = test system: HCV GT1a, GT1b, GT2a, GT3a and GT4a replicons; experiment: Panel of HCV replicon cell lines GT1a to 4a (summary statements); assay type: cell-based; settings: Hepatitis C virus, read-out: EC50 range among HCV GTs (GT1a to 4a), multi-genotypic anti-HCV activity
[3] = test system: HBV AD38 in NTCP-Huh7 cells; experiment: Mono-infection, HBV HBeAg ELISA; assay type: cell-based, hepatitis B virus; settings: 0.5 and 5 μM, added together with virus, 12 days
Source text: For mono-infections: a) human hepatoma Huh7.5.1 cells were infected with HCV (JFH-1) and viral replication was quantified by HCV core ELISA (Ortho HCV antigen ELISA kit; Ortho Clinical Diagnostics, Waco Chemicals, Inc. or HCV Core ELISA, XpressBio); b) sodium-taurocholate co-transporting polypeptide (NTCP)-positive Huh7 cells were infected with hepatitis B virus (HBV) AD38 (produced from HepAD38 cells) and viral replication was quantified by HBV HBeAg ELISA; and c) human (peripheral blood monocytic cells (PBMCs) were infected with HIV-1 (JR-CSF) and viral replication was quantified by HIV-1 capsid/p24 ELISA. PBMCs were isolated as described previously. The Scripps Research Institute Normal Blood Donor Service (TSRI NBDS) provides TSRI investigators who have Human Subjects Committee-approved protocols with a source of normal blood for their research. Donors are assured of a controlled clinical setting for their blood to be drawn by licensed phlebotomists, and investigators are assured that the donors whose specimens they obtain through the service have been screened upon entry into the program and annually thereafter for a CBC, Hepatitis B and C and HIV-1. Hemoglobin determinations at every donation protect the donor from phlebotomy-induced anemia. […]

CC=CCC(C)C(O)C1C(=O)NC(CC)C(=O)N(C)C(CSCCCCO)C(=O)N(C)C(CC(C)(C)O)C(=O)NC(C(C)C)C(=O)N(C)C(CC(C)C)C(=O)NC(C)C(=O)NC(C)C(=O)N(C)C(CC(C)C)C(=O)N(C)C(CC(C)C)C(=O)N(C)C(C(C)C)C(=O)N1C (stereo not drawn) [STG-175]
CC50 at 72 h [1]: > 10 µM | pEC50 [2]: 7.41 to 7.94 | HBV infection (HBeAg ELISA) [3]: significantly reduced
